This is an account of results in patent US5658905A, “Use of triazine compounds as anxiolytics” (priority 1993, dated 1997).

The conditions of data set [1]: reported; models not named; cited from earlier work.
The nature of data set [2]: Vogel conflict (punished drinking) model of anxiety.
The conditions of data set [3]: isethionate salt, EP-A-0 247 892, cited from earlier work.
Another data set concerns mice. Put plainly: Orientative acute oral toxicity (LD50) in mice. To be noted: 50% survive 10 days after administration. In kind it is in vivo. An excerpt: (§1) The present compounds are non-toxic at prophylactically and therapeutically effective doses. […] These are the dose levels at which 50% of the animals survive 10 days after administration of compound A.
Data set [4] in a line: Orientative acute oral toxicity (LD50) in rats. The settings on record: rat, in vivo, 50% survive 10 days after administration.
Excerpt: as §1

The test system of data set [5] is voltage-sensitive sodium channels. The settings on record: Lang et al 1993; Lees and Leach 1993; cited from earlier work.
Data set [6] relates to release of excitatory amino acids, principally glutamate. The settings on record: at anticonvulsant brain concentrations; Leach et al 1986; Zhu and McGee 1990; cited from earlier work.
The mark [7] stands for this setting: Rattus norvegicus, po, 1 h, read-out: number of licks, percentage of vehicle control responding.
Where [8] appears, read: dose-response across tested doses, significance p<0.05, Mann-Whitney U-test.
Setting [9] is: Rattus norvegicus, po, 1 h, read-out: number of licks, percentage of vehicle control responding, 20 mg/kg p.o., one hour before test, vehicle=100% (Table 3).
[10] abbreviates: Rattus norvegicus, po, 1 h, read-out: number of licks, percentage of vehicle control responding, 40 mg/kg p.o., one hour before test, vehicle=100% (Table 3).
Where [11] appears, read: Rattus norvegicus, po, 1 h, read-out: number of licks, percentage of vehicle control responding, 80 mg/kg p.o., one hour before test, vehicle=100% (Table 3).
Where [12] appears, read: Rattus norvegicus, 1 h, read-out: number of licks, percentage of vehicle control responding.
[13] abbreviates: Rattus norvegicus, sc, 20 min, read-out: number of licks, percentage of vehicle control responding.
Setting [14] is: Rattus norvegicus, po, 1 h, read-out: number of licks, percentage of vehicle control responding, 160 mg/kg p.o., one hour before test, vehicle=100% (Table 3).

Structures can show the parent of a compound that is named as a salt. Where two headings read alike, the source gives them in different places.

Take `CN1[C@@H]2CC[C@H]1C[C@@H](OC(=O)c1cc(Cl)cc(Cl)c1)C2` [Bemesetron]: in data set [1], the “anxiolytic effects in other animal models” value is listed as “reported to exhibit anxiolytic effects in other animal models”. Further, in data set [2] (setting [7]), the response vs control in vivo at 0.0001 mg/kg is 89%, the response vs control in vivo at 0.001 mg/kg was determined as 129%, the response vs control in vivo at 0.01 mg/kg was determined as 156% and the response vs control in vivo at 0.1 mg/kg was 116%. In addition, the “effect on punished responding (in words)” value in data set [2] (setting [8]) is “lack of any significant anxiolytic effect”.

Take `NC(=O)N1c2ccccc2C=Cc2ccccc21` [Carbamazepine]: the “effect on punished responding (in words)” value in data set [2] (5.0 mg/kg p.o.) is “no effect”; in data set [2] (20 mg/kg p.o.), “non-significant increase in PR”; in data set [2] (setting [8]), “dose-related, significant increase in punished responding”. Also, the response vs control in vivo at 5 mg/kg in data set [2] (Rattus norvegicus, po, 1 h, read-out: number of licks, percentage of vehicle control responding, 5.0 mg/kg p.o., one hour before test, vehicle=100% (Table 2)) was 87%. Moreover, the response vs control in vivo at 10 mg/kg in data set [2] (Rattus norvegicus, po, 1 h, read-out: number of licks, percentage of vehicle control responding, 10 mg/kg p.o., one hour before test, vehicle=100% (Table 3)) stood at 154%. In addition, the response vs control in vivo at 20 mg/kg in data set [2] (Rattus norvegicus, po, 1 h, read-out: number of licks, percentage of vehicle control responding, 20.0 mg/kg p.o., one hour before test, vehicle=100% (Table 2)) turned out to be 161%; in data set [2] (setting [9]), 206%. For the same compound, the response vs control in vivo at 40 mg/kg in data set [2] (setting [10]) stood at 219%. Further, the response vs control in vivo at 80 mg/kg in data set [2] (setting [11]) is 309%.

Take `Nc1nnc(-c2cccc(Cl)c2Cl)c(N)n1` [Compound A isethionate, 3,5-diamino-6-(2,3-dichlorophenyl)-1,2,4-triazine isethionate]: in data set [3], the solubility entry is given as “good solubility”. Also, the solubility entry in data set [3] (listed as salt with isethionic acid) was “particularly good solubility”. Moreover, in data set [2] (10, 20, 40 mg/kg base equivalent p.o.), the other behavioural changes entry is “no other behavioural changes were observed”. In data set [2] (setting [12]), the response vs control in vivo at 10 mg/kg worked out at 92%, the response vs control in vivo at 20 mg/kg came out at 165% and the response vs control in vivo at 40 mg/kg worked out at 208%. Moreover, in data set [2] (setting [8]), the “effect on punished responding (in words)” value was “dose-related increase in punished responding at 20 and 40 mg/kg, that at the latter dose being significant”.

`Nc1nnc(-c2cccc(Cl)c2Cl)c(N)n1` [Compound A, 3,5-Diamino-6-(2,3-dichlorophenyl)-1,2,4-triazine]: the “acute oral toxicity (LD50)” value with mice turned out to be 250 mg/kg. Besides, the LD50 (in general, the dose at which mortality reaches 50%) at 240 h in data set [4] was 640 mg/kg. The “block of voltage-sensitive sodium channels” value in data set [5] is listed as “use-dependent block of voltage-sensitive sodium channels”. Also, the “inhibition of release of excitatory amino acids, principally glutamate” value in data set [6] is listed as “inhibit the release of excitatory. amino acids, principally glutamate”.

In the case of `CN1C(=O)CN=C(c2ccccc2)c2cc(Cl)ccc21` [Diazepam, 7-chloro-1,3-dihydro-1-methyl-5-phenyl-2H-1,4-benzodiazepin-2-one], the ataxia entry in data set [2] (1.0 mg/kg s.c.) is on record as “accompanied by ataxia”. In data set [2] (setting [13]), the response vs control in vivo at 0.5 mg/kg amounted to 162% and the response vs control in vivo at 1 mg/kg amounted to 296%. In addition, the “effect on punished responding (in words)” value in data set [2] (setting [8]) was “dose-related increase in punished responding (PR) at 0.5 and 1.0 mg/kg. This effect was large and significant”.

Regarding `CCC1(C)CC(=O)NC1=O` (stereo not drawn) [Ethosuximide], the response vs control in vivo at 40 mg/kg in data set [2] (setting [10]) is 64%. Further, the response vs control in vivo at 80 mg/kg in data set [2] (setting [11]) came out at 133%. Besides, the response vs control in vivo at 160 mg/kg in data set [2] (setting [14]) came out at 61%. Also, in data set [2] (Rattus norvegicus, po, 1 h, read-out: number of licks, percentage of vehicle control responding, 320 mg/kg p.o., one hour before test, vehicle=100% (Table 3)), the response vs control in vivo at 320 mg/kg was found to be 96%.

As for `Cc1nccn1CC1CCc2c(c3ccccc3n2C)C1=O` (stereo not drawn) [Ondansetron hydrochloride], the “anxiolytic effects in other animal models” value in data set [1] is “reported to exhibit anxiolytic effects in other animal models”. Further, the response vs control in vivo at 0.0001 mg/kg in data set [2] (Rattus norvegicus, po, 1 h, read-out: number of licks, percentage of vehicle control responding, 0.1 μg/kg p.o., one hour before test, vehicle=100% (Table 3)) stood at 68%. Also, in data set [2] (Rattus norvegicus, po, 1 h, read-out: number of licks, percentage of vehicle control responding, 1.0 μg/kg p.o., one hour before test, vehicle=100% (Table 3)), the response vs control in vivo at 0.001 mg/kg came to 80%. In data set [2] (Rattus norvegicus, po, 1 h, read-out: number of licks, percentage of vehicle control responding, 10 μg/kg p.o., one hour before test, vehicle=100% (Table 3)), the response vs control in vivo at 0.01 mg/kg is 70%. Also, the response vs control in vivo at 0.1 mg/kg in data set [2] (Rattus norvegicus, po, 1 h, read-out: number of licks, percentage of vehicle control responding, 100 μg/kg p.o., one hour before test, vehicle=100% (Table 3)) came out at 87%. Besides, the “effect on punished responding (in words)” value in data set [2] (setting [8]) is given as “lack of any significant anxiolytic effect”.

As to `O=C1NC(=O)C(c2ccccc2)(c2ccccc2)N1` [Phenytoin sodium], in data set [2] (10 or 40 mg/kg p.o.), the “effect on punished responding (in words)” value is listed as “no effect on PR”. In addition, the response vs control in vivo at 10 mg/kg in data set [2] (Rattus norvegicus, po, 1 h, read-out: number of licks, percentage of vehicle control responding, 10.0 mg/kg p.o. (parent acid equivalent), one hour before test, vehicle=100% (Table 2)) was 121%. Besides, in data set [2] (setting [9]), the response vs control in vivo at 20 mg/kg was 101%. The response vs control in vivo at 40 mg/kg amounted to 114% in data set [2] (Rattus norvegicus, po, 1 h, read-out: number of licks, percentage of vehicle control responding, 40.0 mg/kg p.o. (parent acid equivalent), one hour before test, vehicle=100% (Table 2)) and 135% in data set [2] (setting [10]). Also, in data set [2] (setting [11]), the response vs control in vivo at 80 mg/kg is 220%. Besides, in data set [2] (setting [14]), the response vs control in vivo at 160 mg/kg is 173%.

With `CCCC(CCC)C(=O)O` [Sodium valproate], in data set [2] (setting [7]), the response vs control in vivo at 40 mg/kg was 79%, the response vs control in vivo at 80 mg/kg was found to be 108%, the response vs control in vivo at 160 mg/kg was determined as 151% and the response vs control in vivo at 320 mg/kg is 261%.
